We go through 17 molecules from US10947252B2, “Inhibitors of KEAP1-Nrf2 protein-protein interaction” (Janssen Pharmaceutica NV, priority 2018, dated 2021).

Assay [1] deals with Glo-Response ARE-luc2P HEK293 cell line. Kind of assay: ARE luciferase reporter cell-based assay.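 Also: luciferase signal tracks Nrf2 activation of the ARE once compounds disrupt KEAP1-Nrf2 binding, read with One-Glo reagent, DMSO serving as low control.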 The settings on record: Homo sapiens, HEK293, 24 h, average of results obtained. In general terms: In a reporter assay the amount or activity of a reporter protein is the signal.
Assay [2] concerns the target Kelch domain of human KEAP1 (321-624 aa) (Homo sapiens (Human), UniProt Q14145). Kind of assay: KEAP1 KELCH ThermoFluor binding assay.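 Also: Ligand-induced melting temperature shift of E. coli-expressed KEAP1 Kelch protein, Kd estimated from concentration-response curves of ΔTm.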 The note with it: KEAP Kelch […], 1,8-ANS, pH 7.0, average of results obtained, read-out: Tf Kd.
Excerpt: The shift in the melting point described as a ΔTm is proportional to the concentration and affinity of the ligand. The compound potency may be compared as a rank order of either ΔTm values at a single compound concentration or in terms of KD values, estimated from concentration response curves.
The protein was expressed in E. coli with 6His tag that was cleaved prior to receipt for use.
Protein (KEAP Kelch) and compound solutions were dispensed into black 384-well polypropylene PCR microplates (Abgene) and overlayed with silicone oil (1 μL, Fluka, type DC 200) to prevent evaporation.

The structures appear in SMILES notation.

Sequence of Kelch domain of human KEAP1 (321-624 aa) (Q14145 321-624): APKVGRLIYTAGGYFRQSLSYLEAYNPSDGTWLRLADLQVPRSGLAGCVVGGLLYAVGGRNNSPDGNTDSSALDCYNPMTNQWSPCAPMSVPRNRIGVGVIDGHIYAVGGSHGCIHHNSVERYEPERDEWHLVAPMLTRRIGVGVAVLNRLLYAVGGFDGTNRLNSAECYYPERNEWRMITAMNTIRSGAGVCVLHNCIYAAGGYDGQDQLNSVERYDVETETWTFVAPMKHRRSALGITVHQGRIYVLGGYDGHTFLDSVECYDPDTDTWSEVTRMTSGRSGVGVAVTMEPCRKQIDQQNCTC

Take `Cc1ccc([C@H](c2ccn3c(C(F)(F)F)nnc3c2C)C(C)(C)C(=O)O)cc1CN1CC2(CC2)Oc2ncccc2S1(=O)=O` (single isomer, unassigned) [Example 318, (*R)-3-(3-((1′,1′-Dioxidospiro[cyclopropane-1,4′-pyrido[2,3-b][1,4,5]oxathiazepin]-2′(3′H)-yl)methyl)-4-methylphenyl)-2,2-dimethyl-3-(8-methyl-3-(trifluoromethyl)-[1,2,4]triazolo[4,3-a]pyridin-7-yl)propanoic Acid]: the EC50 – broadly, the concentration that produces a half-maximal response – in assay [1] worked out at 598 nM. In assay [2], the Kd (as a rule, the constant that tells how readily two partners part at equilibrium) is 1990 nM.

The molecule `Cc1cnc2c(c1)S(=O)(=O)N(Cc1cc([C@H](c3ccn4c(C(F)(F)F)nnc4c3)C(C)(C)C(=O)O)ccc1C)CC1(CC1)O2` (single isomer, unassigned) [Example 324, (*R)-2,2-Dimethyl-3-(4-methyl-3-((8′-methyl-1′,1′-dioxidospiro[cyclopropane-1,4′-pyrido[2,3-b][1,4,5]oxathiazepin]-2′(3′H)-yl)methyl)phenyl)-3-(3-(trifluoromethyl)-[1,2,4]triazolo[4,3-a]pyridin-7-yl)propanoic Acid] yielded an EC50 in assay [1] of 16.7 nM. In addition, in assay [2], the dissociation constant (Kd) was less than 1 nM.

In assay [1], `Cc1cnc2c(c1)S(=O)(=O)N(Cc1cc([C@@H](CC(=O)O)c3ccn4c(C(F)(F)F)nnc4c3C)ccc1C#N)CC1(CC1)O2` (single isomer, unassigned) [Example 106, (*R)-3-(4-Cyano-3-((8′-methyl-1′,1′-dioxidospiro[cyclopropane-1,4′-pyrido[2,3-b][1,4,5]oxathiazepin]-2′(3′H)-yl)methyl)phenyl)-3-(8-methyl-3-(trifluoromethyl)-[1,2,4]trizolo[4,3-a]pyridine-7-yl)propanoic Acid] returned an EC50 greater than 20000 nM. Moreover, the Kd in assay [2] was 21 nM.

In turn, `Cc1cnc2c(c1)S(=O)(=O)N(Cc1cc(C(c3ccn4c(C5CC5)nnc4c3C)C(C)(C)C(=O)O)ccc1C)CC1(CC1)O2` (racemic) [Example 391, (R/S)-3-(3-Cyclopropyl-8-methyl-[1,2,4]triazolo[4,3-a]pyridin-7-yl)-2,2-dimethyl-3-(4-methyl-3-((8′-methyl-1′,1′-dioxidospiro[cyclopropane-1,4′-pyrido[2,3-b][1,4,5]oxathiazepin]-2′(3′H)-yl)methyl)phenyl)propanoic Acid] registered an EC50 in assay [1] of 26.7 nM. Besides, the Kd in assay [2] was less than 1 nM.

For the molecule `Cc1ccc([C@@H](CC(=O)O)c2ccn3c(C(F)F)nnc3c2C)cc1CN1CC2(CC2)Oc2ncc(C(N)=O)cc2S1(=O)=O` (single isomer, unassigned) [Example 553, (*R)-3-(3-((8′-Carbamoyl-1′,1′-dioxidospiro[cyclopropane-1,4′-pyrido[2,3-b][1,4,5]oxathiazepin]-2′(3′H)-yl)methyl)-4-methylphenyl)-3-(3-(difluoromethyl)-8-methyl-[1,2,4]triazolo[4,3-a]pyridin-7-yl)propanoic Acid], the EC50 in assay [1] was greater than 20000 nM. In assay [2], the equilibrium dissociation constant (Kd) came to 769 nM.

For the molecule `Cc1ccc([C@H](CC(=O)O)c2ccn3c(C(F)(F)F)nnc3c2)cc1CN1C[C@@H]2CCCN2c2ncccc2S1(=O)=O` (single isomer, unassigned) [Example 254, (*S)-3-(3-(((S)-5,5-Dioxido-7a,8,9,10-tetrahydropyrido[2,3-f]pyrrolo[2,1-d][1,2,5]thiadiazepin-6(7H)-yl)methyl)-4-methylphenyl)-3-(3-(trifluoromethyl)-[1,2,4]triazolo[4,3-a]pyridin-7-yl)propanoic Acid], a half-maximal response in assay [1] (EC50) required 3400 nM. Moreover, the Kd in assay [2] is less than 1 nM.

For `Cc1ccc([C@H](CC(=O)O)c2ccn3c(C(F)(F)F)nnc3c2C)nc1CN1CC2(CC2)Oc2ncccc2S1(=O)=O` (single isomer, unassigned) [Example 483, (*R)-3-(6-((1′,1′-Dioxidospiro[cyclopropane-1,4′-pyrido[2,3-b][1,4,5]oxathiazepin]-2′(3′H)-yl)methyl)-5-methylpyridin-2-yl)-3-(8-methyl-3-(trifluoromethyl)-[1,2,4]triazolo[4,3-a]pyridin-7-yl)propanoic Acid], in assay [1], the EC50 is 3450 nM. Also, the Kd in assay [2] was less than 1 nM.

In assay [1], `CCc1nnc2c(C)c([C@@H](CC(=O)O)c3ccc(C)c(CN4C[C@H]5CCCN5c5ncccc5S4(=O)=O)c3)ccn12` (single isomer, unassigned) [Example 282, (*S)-3-(3-(((R)-5,5-dioxido-7a,8,9,10-tetrahydropyrido[2,3-f]pyrrolo[2,1-d][1,2,5]thiadiazepin-6(7H)-yl)methyl)-4-methylphenyl)-3-(3-ethyl-8-methyl-[1,2,4]triazolo[4,3-a]pyridin-7-yl)propanoic Acid] had an EC50 of 293 nM. Besides, in assay [2], the Kd was less than 1 nM.

The molecule `Cc1ccc([C@H](CC(=O)O)c2ccn3c(C(F)F)nnc3c2C)cc1CN1CC2(CC2)Oc2ncc(C(N)=O)cc2S1(=O)=O` (single isomer, unassigned) [Example 552, (*S)-3-(3-((8′-Carbamoyl-1′,1′-dioxidospiro[cyclopropane-1,4′-pyrido[2,3-b][1,4,5]oxathiazepin]-2′(3′H)-yl)methyl)-4-methylphenyl)-3-(3-(difluoromethyl)-8-methyl-[1,2,4]triazolo[4,3-a]pyridin-7-yl)propanoic Acid] registered an EC50 in assay [1] greater than 20000 nM. Further, the Kd in assay [2] is 150 nM.

`Cc1ccc([C@@H](CC(=O)O)c2ccn3c(C(F)(F)F)nnc3c2C)nc1CN1C[C@H]2CCCCN2c2ncc(Cl)cc2S1(=O)=O` (single isomer, unassigned) [Example 520, (*S)-3-(6-(((*R)-3-Chloro-5,5-dioxido-7,7a,8,9,10,11-hexahydro-6H-dipyrido[2,1-d:2′,3′-f][1,2,5]thiadiazepin-6-yl)methyl)-5-methylpyridin-2-yl)-3-(8-methyl-3-(trifluoromethyl)-[1,2,4]triazolo[4,3-a]pyridin-7-yl)propanoic Acid] came in with an EC50 in assay [1] of 15.6 nM. In addition, in assay [2], the Kd is less than 1 nM.

`Cc1ccc([C@@H](c2ccn3c(C(F)F)nnc3c2C)C(C)(C)C(=O)O)nc1CN1CC2(CC2)Oc2nc(OCCN3CCCC3)c(C)cc2S1(=O)=O` (single isomer, unassigned) [Example 358, (*S)-3-(3-(Difluoromethyl)-8-methyl-[1,2,4]triazolo[4,3-a]pyridin-7-yl)-2,2-dimethyl-3-(5-methyl-6-((8′-methyl-1′,1′-dioxido-7′-(2-(pyrrolidin-1-yl)ethoxy)spiro[cyclopropane-1,4′-pyrido[2,3-b][1,4,5]oxathiazepin]-2′(3′H)-yl)methyl)pyridin-2-yl)propanoic Acid] yielded an EC50 in assay [1] of 23.3 nM. For the same molecule, in assay [2], the Kd came to 4460 nM.

On to `Cc1c([C@H](CC(=O)O)c2ccc(Cl)c(CN3CC4(COC4)Oc4ncccc4S3(=O)=O)c2)ccn2c(C(F)(F)F)nnc12` (single isomer, unassigned) [Example 87, (*R)-3-(4-Chloro-3-((1′,1′-dioxoidospiro[oxetane-3,4′-pyrido[2,3-b][1,4,5]oxathiazepin]-2′(3′H)-yl)methyl)phenyl)-3-(8-methyl-3-(trifluoromethyl)-[1,2,4]triazolo[4,3-a]pyridine-7-yl)propanoic Acid], for which the EC50 in assay [1] came out at 2530 nM. The Kd in assay [2] came out at 1.3 nM.

`Cc1ccc(C(CC(=O)O)c2ccc3c(nnn3C3CC3)c2C)cc1CN1C[C@]2(C)CCCN2c2ncccc2S1(=O)=O` (mixture of isomers) [Example 218, (R/S)-3-(1-Cyclopropyl-4-methyl-1H-benzo[d][1,2,3]triazol-5-yl)-3-(4-methyl-3-(((*S)-7a-methyl-5,5-dioxido-7a,8,9,10-tetrahydropyrido[2,3-f]pyrrolo[2,1-d][1,2,5]thiadiazepin-6(7H)-yl)methyl)phenyl)propanoic Acid]: a half-maximal effect in assay [1] (EC50) was put at 6.6 nM. The Kd in assay [2] is less than 1 nM.

The molecule `Cc1ccc([C@H](CC(=O)O)c2ccc3c(nnn3C3CC3)c2C)cc1CN1C[C@H]2CCCN2c2ncccc2S1(=O)=O` (single isomer, unassigned) [Example 210, (*S)-3-(1-Cyclopropyl-4-methyl-1H-benzo[d][1,2,3]triazol-5-yl)-3-(3-(((R)-5,5-dioxido-7a,8,9,10-tetrahydropyrido[2,3-f]pyrrolo[2,1-d][1,2,5]thiadiazepin-6(7H)-yl)methyl)-4-methylphenyl)propanoic Acid] displayed an EC50 in assay [1] of 7.7 nM. For the same molecule, in assay [2], the dissociation constant Kd was less than 1 nM.

In assay [1], `Cc1ccc(C(CC(=O)O)c2ccc3c(nnn3C3CC3)c2C)cc1CN1CC2(COC2)Oc2ccccc2S1(=O)=O` (racemic) [Example 214, (R/S)-3-(1-Cyclopropyl-4-methyl-1H-benzo[d][1,2,3]triazol-5-yl)-3-(3-((1,1-dioxidospiro[benzo[b][1,4,5]oxathiazepine-4,3′-oxetan]-2(3H)-yl)methyl)-4-methylphenyl)propanoic Acid] yielded an EC50 of 5.1 nM. Also, the Kd in assay [2] is less than 1 nM.

On to `Cc1ccc([C@@H](c2ccn3c(C(F)(F)F)nnc3c2C)C(C)(C)C(=O)O)cc1CN1CC2(CCOCC2)Oc2nc(OCCO)ccc2S1(=O)=O` (single isomer, unassigned) [Example 606, (*S)-3-(3-((7′-(2-Hydroxyethoxy)-1′,1′-dioxido-2,3,5,6-tetrahydrospiro[pyran-4,4′-pyrido[2,3-b][1,4,5]oxathiazepin]-2′(3′H)-yl)methyl)-4-methylphenyl)-2,2-dimethyl-3-(8-methyl-3-(trifluoromethyl)-[1,2,4]triazolo[4,3-a]pyridine-7-yl)propanoic Acid], for which the EC50 in assay [1] is greater than 20000 nM. In assay [2], the Kd was found to be 1730 nM.

With `Cc1ccc([C@@H](CC(=O)O)c2ccn3c(C(F)F)nnc3c2C)cc1CN1C[C@@H]2COCCN2c2ncccc2S1(=O)=O` (single isomer, unassigned) [Example 459, (*R)-3-(3-(Difluoromethyl)-8-methyl-[1,2,4]triazolo[4,3-a]pyridin-7-yl)-3-(3-(((*R)-5,5-dioxido-7a,8,10,11-tetrahydro-[1,4]oxazino[3,4-d]pyrido[2,3-f][1,2,5]thiadiazepin-6(7H)-yl)methyl)-4-methylphenyl)propanoic Acid], a half-maximal effect in assay [1] (EC50) was put at 203 nM. Besides, in assay [2], the dissociation constant Kd was determined as 1.19 nM.
